This note sets out measurements from patent US20110146678A1, “PROCESS FOR IMPROVING CRYSTALLINITY” (priority 2008, published 2011).

Data set [1] can be described thus: Cohesive-adhesive balance (CAB) by AFM colloid probe. Type of data set: physicochemical. To be noted: for adhesive FP-Lactose interactions, times greater than cohesive FP-FP interactions (CAB analysis): equivalent contact geometry, 20° C., 45% RH; for adhesiveness to lactose (FIG. 29): comparison between batches. An excerpt:
The cohesive-adhesive balance (CAB) approach of the AFM colloid probe technique is a development that enables direct quantification of the cohesive and adhesive nature—“the force balance” of an API within a formulation. It is a commercially available screening tool in determining the cohesive/adhesive force interactions between potential formulation components using milligrams or less of material.
The CAB approach measures the forces of interaction between API particles, mounted as colloid AFM probes, and well-defined crystalline surfaces of the API and carrier substrates. A CAB plot generated from the interaction of a number of probes allows a characteristic measurement of the cohesive nature of the API, in relation to its adhesive propensity with an excipient material to be quantified. The development of the CAB approach has overcome a number of the limitations associated with conventional AFM colloid probe methodologies, including issues regarding instrumental validation and the need to determine the true area of contact of the interacting surfaces. […] Drug-carrier combinations with a higher CAB ratio, such as >1, results in a higher fine particle fraction (FPF) upon aerosolisation, despite potential difference between the carriers in terms of size, shape, roughness and flowability. Drug-carrier combinations with a lower CAB ratio, such as, <1 result in greater […] of the active particle to the carrier, therefore the active particle is more likely to remain attached to the carrier. This means that in an inhaled composition, the active particle which remains attached to the carrier particle may not reach the lung and may be deposited in the throat or on the tongue. Preferably, the particles produced according to the present invention have much lower cohesiveness than particles prepared by other methods including micronization and milling. With respect to a measure of cohesiveness, since all substrates will be different with respect to their cohesive and adhesive properties, the CAB ratio is a dimensionless value which is a more useful measure for comparison. Preferably, the particles produced according to the present invention have CAB ratios with the carrier particles of 0.8-1.3, more preferably 0.9-1.2, more preferably, 1.0- 1.1. This is a careful balance between the cohesion of the drug with itself and the adhesion of the drug with the carrier.
The cohesive-adhesive balance (CAB) of micronized Fluticasone Propionate (FP) and batches of FP engineered by the method of the current invention (samples 2 and 3) and by a different method exemplified in WO 2008/114052 A1 (sample 4), as described in Example 1, were determined with respect to crystalline substrates of FP and lactose monohydrate. The CAB force balance of the different batches with respect to the crystalline substrates was determined as follows:
Particles (n=3) of all batches of FP were attached onto standard V-shaped tipless cantilevers (DNP-020, DI, CA, USA) using an epoxy resin glue (Araldite, Cambridge, UK).
Smooth crystals of lactose were produced on cooling of a heated saturated droplet sandwiched between cover slips. Smooth drug crystals were produced using sitting-drop anti-solvent crystallisation, in which the active was dissolved in acetone and the anti-solvent employed was water.
Individual force curves (n=1024) were conducted over a 10 μm×10 μm area at a scan rate of 4 Hz and a compressive load of 40 nN. Environmental conditions were maintained at a constant temperature of 20° C. (±1.5 ° C.) and relative humidity 45±3%.

Data set [2] can be described thus: Aerosolisation efficiency of binary DPI formulations (0.4% w/w FP in lactose), NGI via Rotahaler. Type of data set: physicochemical. The note with it: binary DPI, Rotahaler 60 Lpm. The protocol:
The aerosolization efficiency of samples 2, 3 and 4 of engineered FP were evaluated using binary formulations containing 0.4% w/w FP.
Each binary formulation contained 0.016 g FP and 3.984 g lactose (ML001, DMV-Fonterra, Vehgel, Netherlands) and was prepared by geometric mixing. Following this, the blend was subsequently prepared using a Turbula T2F (Willy A Bachofen A G, Basel, Switzerland) at 46 rpm for 45 minutes.
Following content uniformity testing, 12.5±1 mg of each blend was loaded into size 3 hydroxypropylmethyl cellulose capsules (HPMC, Shionogi Qualicaps S A, Basingstoke, UK). The capsules were stored at 44% RH for 24 h prior to in vitro performance testing.
Testing was performed using a Next Generation Impactor (NGI) with pre-separator, which was connected to a vacuum pump (GE Motors). Prior to testing, the pre-separator was filled with 15 ml of mobile phase and the cups of the NGI cups were coated with 1% v/v silicone oil in hexane to eliminate particle bounce.
For each experiment, four individual capsules of the same formulation were discharged into the NGI at 60 Lpm for 4 s via a Rotahaler (GSK, Ware, UK) DPI device. Additionally, blisters from a Flixotide Diskus (GSK, Ware, UK) were emptied and loaded into size 3 HPMS capsules and discharged into a NGI at 60 Lpm1 for 4 s via a Rotahaler. Following aerosolization, the NGI apparatus was dismantled and the inhaler, capsules and each part of the NGI was washed down into known volumes of HPLC mobile phase.
The mass of drug deposited on each part of the NGI was determined by HPLC. This protocol was repeated three times for each blend, following which, the mass median aerodynamic diameter (MMAD), geometric standard deviation (GSD), fine particle dose (FPD) and fine particle fraction of the emitted dose (FPFED) were determined. The FPD represented the mass of drug that was collected on stages 3-8 of the NGI.

As for `CCC(=O)O[C@]1(C(=O)SCF)[C@H](C)C[C@H]2[C@@H]3C[C@H](F)C4=CC(=O)C=C[C@]4(C)[C@@]3(F)[C@@H](O)C[C@@]21C` [Sample 3, Fluticasone propionate], the “adhesion values (FP-lactose interaction)” value in data set [1] (AFM force measurement) is 35-89 nN. Also, the “adhesive FP-Lactose interactions, times greater than cohesive FP-FP interactions (CAB analysis)” value (“adhesive FP-Lactose interactions” below) in data set [1] (listed as sample 3 FP) came out at 1.16. The “percentage fine particle fraction (% FPF) compared with micronized FP” value in data set [2] is given as “significantly greater than that of micronized FP”.

Turning to `CCC(=O)O[C@]1(C(=O)SCF)[C@H](C)C[C@H]2[C@@H]3C[C@H](F)C4=CC(=O)C=C[C@]4(C)[C@@]3(F)[C@@H](O)C[C@@]21C` [Sample 2, Fluticasone propionate], the “adhesion values (FP-lactose interaction)” value in data set [1] (AFM force measurement) is 128-169 nN. Also, the “adhesive FP-Lactose interactions” value in data set [1] (listed as sample 2 FP) is recorded as 1.17. Moreover, the “percentage fine particle fraction (% FPF) compared with micronized FP” value in data set [2] (listed as Samples 2) was “significantly greater than that of micronized FP”.

For the compound `CCC(=O)O[C@]1(C(=O)SCF)[C@H](C)C[C@H]2[C@@H]3C[C@H](F)C4=CC(=O)C=C[C@]4(C)[C@@]3(F)[C@@H](O)C[C@@]21C` [Sample 4, fluticasone propionate, reference compound], the “adhesion values (FP-lactose interaction)” value in data set [1] (AFM force measurement) is given as 400-800 nN. For the same compound, the “adhesiveness to lactose (FIG. 29)” value in data set [1] was “least adhesive to lactose and SX”. Moreover, the “adhesive FP-Lactose interactions” value in data set [1] (listed as sample 4 FP) was “almost equal”. Moreover, the “percentage fine particle fraction (% FPF) compared with micronized FP” value in data set [2] was “significantly lower % FPF than micronized FP”.

With `CCC(=O)O[C@]1(C(=O)SCF)[C@H](C)C[C@H]2[C@@H]3C[C@H](F)C4=CC(=O)C=C[C@]4(C)[C@@]3(F)[C@@H](O)C[C@@]21C` [micronized FP, Fluticasone Propionate], the adhesion values in data set [1] (AFM force measurement) fell in the range of 169 to 249 nN. Further, in data set [1], the “adhesiveness to lactose (FIG. 29)” value is “significantly more adhesive to lactose” and the “adhesive FP-Lactose interactions” value came to 1.36.
